Results on 1 molecule are retold here after patent US8679495B2, “Use of anti-90K monoclonal antibodies for the prevention and treatment of tumors and metastases thereof” (MediaPharma S.r.l., priority 2009, dated 2014).

The structures appear in SMILES notation.

This assay concerns human breast cancer cell MDA-MD-231. Description: Tumor growth of breast cancer cells injected subcutaneously in nude mice. The note with it: MDA-MD-231 in nude mice, intraperitoneal, SP-2 10 μg/kg twice a week, docetaxel 7.5 mg/kg once a week, up to 44 days. The class given is in vivo. The protocol:
Materials and methods: Nude mice were injected subcutaneously with 5×10^6 human breast cancer cell MDA-MD-231 (cells expressing 90K). One group was injected by intraperitoneal route with phosphate buffer and served as a control. Other groups were treated by intraperitoneal route with SP-2 antibody at a dose of 10 μg/kg twice a week, or a control IgG at the same dose, or with docetaxel at a dose of 7.5 mg/kg once a week, or with a combination of SP-2 and docetaxel. Tumor growth was followed up by measuring lesion diameters up to 44 days after injection. Each group, control and treated, consisted of 8 animals.

On to `CC(=O)O[C@@]12CO[C@@H]1C[C@H](O)[C@@]1(C)C(=O)[C@H](O)C3=C(C)[C@@H](OC(=O)[C@H](O)[C@@H](NC(=O)OC(C)(C)C)c4ccccc4)C[C@@](O)([C@@H](OC(=O)c4ccccc4)[C@H]21)C3(C)C` [docetaxel], for which the “tumor growth in comparison with control group” value was “significantly reduced tumor growth”.
